Results published in ChEMBL document CHEMBL1128137, “A novel series of highly potent 5-lipoxygenase inhibitors; 2-aryldienylbenzoxazoles” (Bioorg Med Chem Lett, 1995).

Target: T1, Polyunsaturated fatty acid 5-lipoxygenase (Rattus norvegicus, UniProt P12527)
T1 sequence (P12527 whole entry): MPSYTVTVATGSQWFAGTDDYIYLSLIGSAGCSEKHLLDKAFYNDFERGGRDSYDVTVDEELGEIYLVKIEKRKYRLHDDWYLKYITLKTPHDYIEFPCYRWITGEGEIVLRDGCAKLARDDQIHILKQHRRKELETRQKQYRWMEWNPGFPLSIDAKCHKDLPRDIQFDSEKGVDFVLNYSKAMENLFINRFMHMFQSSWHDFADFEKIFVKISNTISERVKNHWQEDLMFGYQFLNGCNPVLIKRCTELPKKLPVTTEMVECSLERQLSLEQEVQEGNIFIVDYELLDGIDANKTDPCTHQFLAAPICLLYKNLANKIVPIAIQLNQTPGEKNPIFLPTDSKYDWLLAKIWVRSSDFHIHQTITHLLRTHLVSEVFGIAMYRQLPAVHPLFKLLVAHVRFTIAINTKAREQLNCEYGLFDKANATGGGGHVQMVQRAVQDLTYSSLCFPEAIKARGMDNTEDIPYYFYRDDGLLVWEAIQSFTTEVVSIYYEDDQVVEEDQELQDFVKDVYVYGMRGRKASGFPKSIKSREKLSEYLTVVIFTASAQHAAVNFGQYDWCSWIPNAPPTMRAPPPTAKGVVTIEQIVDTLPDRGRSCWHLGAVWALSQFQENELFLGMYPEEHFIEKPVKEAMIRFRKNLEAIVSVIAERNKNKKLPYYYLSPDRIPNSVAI
Assay: Inhibition of 5-lipoxygenase of rat basophilic leukemia (RBL) cell cytosolic enzymes
Design: species or system RBL-1

IC50 [nM] | Compound
1150 | CCOC(=O)/C=C/c1ccc(O)c(O)c1 [ETHYL CAFFEATE]
380 | COc1cc(/C=C/C=C/c2nc3cc(Cl)ccc3o2)ccc1O
150 | COc1cc(/C=C/C=C/C(=O)NCCN2CCC(OC(c3ccccc3)c3ccccc3)CC2)ccc1O
5800 | COc1cc(/C=C/C=C/c2nc3cc(C(=O)O)ccc3o2)ccc1O
290 | COc1cc(/C=C/C=C/c2nc3cc(C)ccc3o2)ccc1O
130 | CCOC(=O)c1ccc2nc(/C=C/C=C/c3ccc(O)c(OC)c3)oc2c1
250 | CCOC(=O)c1ccc2oc(/C=C/C=C/c3ccc(O)c(OC)c3)nc2c1
300 | COc1cc(/C=C/C=C/c2nc3ccc(CO)cc3o2)ccc1O
260 | COc1cc(/C=C/C=C/c2nc3cc(CO)ccc3o2)ccc1O
370 | COc1cc(/C=C/C=C/c2nc3ncccc3o2)ccc1O
20 | CCOC(=O)c1ccc2oc(/C=C/C=C/c3ccc(O)c(O)c3)nc2c1
30 | Oc1ccc(/C=C/C=C/c2nc3ccccc3o2)cc1O
330 | COc1cc(/C=C/C=C/c2nc3ccccc3o2)ccc1O
170 | COc1cc(/C=C/C=C/c2nc3c(ccc4ccccc43)o2)ccc1O
